Assay [1] addresses T1, human CD73 recombinant protein (Homo sapiens, UniProt P21589).
T1 construct: made in house
T1 sequence (P21589 27-549): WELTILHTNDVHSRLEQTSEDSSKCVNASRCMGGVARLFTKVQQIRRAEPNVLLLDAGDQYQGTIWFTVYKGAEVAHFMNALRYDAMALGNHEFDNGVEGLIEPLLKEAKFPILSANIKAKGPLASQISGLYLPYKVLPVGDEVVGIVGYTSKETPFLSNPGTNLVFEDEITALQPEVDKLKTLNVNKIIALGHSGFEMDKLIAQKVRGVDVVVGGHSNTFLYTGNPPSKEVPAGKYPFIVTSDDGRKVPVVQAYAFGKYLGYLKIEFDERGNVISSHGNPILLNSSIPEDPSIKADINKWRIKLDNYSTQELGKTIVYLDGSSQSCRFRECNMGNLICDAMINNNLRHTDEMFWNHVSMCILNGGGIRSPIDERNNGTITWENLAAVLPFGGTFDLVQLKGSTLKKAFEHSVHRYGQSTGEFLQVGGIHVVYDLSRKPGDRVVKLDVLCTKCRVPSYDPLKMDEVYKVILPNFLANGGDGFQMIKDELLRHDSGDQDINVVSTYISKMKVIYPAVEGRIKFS
Nature of the assay: Enzyme assay, CD73 (Malachite green kit). The assay is classed as biochemical. As to conditions: AMP added, incubation 30 minutes. The procedure: (§1) Referring to a method described in a reference document [Front Pharmacol. 2018 Mar. 1; 9:153], an enzyme assay was performed. Each of human CD73 and CD39 recombinant proteins was produced and then purified and isolated, and used in an enzyme assay. A buffer was basically 25 mM Tris, 5 mM MgCl2, pH 7.5 as an assay buffer, and for assay, human CD73 and CD39 recombinant protein were diluted at an appropriate concentration, respectively, in the assay buffer, adenosine monophosphate (AMP) (Sigma, Catalog #A1752) at an appropriate concentration was added, and then incubation was performed for 30 minutes. At the time, the azolopyrimidine heterocyclic compounds of the present invention were treated for each concentration and incubated together, thereby measuring a degree of inhibiting activity of CD73 or CD39.

In assay [2] the target is T2, human CD39 recombinant protein (Homo sapiens, UniProt P49961).
T2 construct: made in house
T2 sequence (P49961 1-510): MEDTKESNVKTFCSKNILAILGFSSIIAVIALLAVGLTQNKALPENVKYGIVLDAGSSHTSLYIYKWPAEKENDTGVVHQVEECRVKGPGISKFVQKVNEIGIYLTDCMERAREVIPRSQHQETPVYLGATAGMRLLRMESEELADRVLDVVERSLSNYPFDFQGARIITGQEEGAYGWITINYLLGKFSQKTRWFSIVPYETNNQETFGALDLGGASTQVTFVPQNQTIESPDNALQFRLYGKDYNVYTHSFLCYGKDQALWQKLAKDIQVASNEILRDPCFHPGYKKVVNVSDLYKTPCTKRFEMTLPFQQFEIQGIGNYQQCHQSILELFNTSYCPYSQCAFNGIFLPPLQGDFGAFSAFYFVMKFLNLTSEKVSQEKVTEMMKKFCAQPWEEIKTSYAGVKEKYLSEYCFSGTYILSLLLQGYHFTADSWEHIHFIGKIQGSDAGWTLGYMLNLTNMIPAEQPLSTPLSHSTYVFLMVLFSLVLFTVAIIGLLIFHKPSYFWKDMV
Nature of the assay: Enzyme assay, CD39 (Malachite green kit). The assay is classed as biochemical. The conditions noted are these: AMP added, incubation 30 minutes. The procedure: as §1

What is called IC50 is the concentration needed to halve the response being measured. For the compound `CN(Cc1cccc(F)c1)c1ncnc2c1ncn2[C@@H]1O[C@H](CO[Si](c2ccccc2)(c2ccccc2)C(C)(C)C)[C@H]2OC(C)(C)O[C@H]21` [Compound 1, 9-((3aR,4R,6R,6aR)-6-(((tert-butyldiphenylsilyl)oxy)methyl)-2,2-dimethyltetrahydrofuro[3,4-d][1,3]dioxol-4-yl)-N-(3-fluorobenzyl)-N-methyl-9H-purin-6-amine], in assay [1], the 50% inhibitory concentration (IC50) is at least 30 µM. On to `CN(Cc1cccc(F)c1)c1ncnc2c1ncn2[C@@H]1O[C@H](COC(=O)Nc2ccccc2)[C@H]2OC(C)(C)O[C@H]21` [Compound 3, ((3aR,4R,6R,6aR)-6-(6-((3-fluorobenzyl)(methyl)amino)-9H-purin-9-yl)-2,2-dimethyltetrahydrofuro[3,4-d][1,3]dioxol-4-yl)methyl phenylcarbamate], for which the half-inhibitory concentration (IC50) in assay [1] was 15.1 to 30 µM. As for `CN(Cc1cccc(F)c1)c1ncnc2c1ncn2[C@@H]1O[C@H](COC(=S)Nc2ccccc2)[C@H]2OC(C)(C)O[C@H]21` [Compound 4, O-(((3aR,4R,6R,6aR)-6-(6-((3-fluorobenzyl)(methyl)amino)-9H-purin-9-yl)-2,2-dimethyltetrahydrofuro[3,4-d][1,3]dioxol-4-yl)methyl) phenylcarbamothioate], the IC50 in assay [1] fell in the range of 15.1 to 30 µM. `CN(Cc1cccc(F)c1)c1ncnc2c1ncn2[C@@H]1O[C@H](COC(=O)Nc2ccccc2)[C@@H](O)[C@H]1O` [Compound 6, ((2R,3S,4R,5R)-5-(6-((3-fluorobenzyl)(methyl)amino)-9H-purin-9-yl)-3,4-dihydroxytetrahydrofuran-2-yl)methyl phenylcarbamate]: in assay [1], the IC50 was 5.1 to 15 µM.

Regarding `CN(Cc1cccc(F)c1)c1ncnc2c1ncn2[C@@H]1O[C@H](COC(=S)Nc2ccccc2)[C@@H](O)[C@H]1O` [Compound 7, O-(((2R,3S,4R,5R)-5-(6-((3-fluorobenzyl)(methyl)amino)-9H-purin-9-yl)-3,4-dihydroxytetrahydrofuran-2-yl)methyl) phenylcarbamothioate], the IC50 was at least 30 µM in assay [2] and 1.1 to 5 µM in assay [1]. As for `CN(Cc1cccc(F)c1)c1ncnc2c1ncn2[C@@H]1O[C@H](CO[Si](c2ccccc2)(c2ccccc2)C(C)(C)C)[C@@H](O)[C@H]1O` [Compound 8, (2R,3S,4R,5R)-2-(((tert-butyldiphenylsilyl)oxy)methyl)-5-(6-((3-fluorobenzyl)(methyl)amino)-9H-purin-9-yl)tetrahydrofuran-3,4-diol], the IC50 in assay [2] is 1.1 to 5 µM; in assay [1] it was under 1 µM.

Take `CN(Cc1cccc(F)c1)c1ncnc2c1ncn2[C@@H]1O[C@H](COC(=O)c2ccccc2)[C@@H](O)[C@H]1O` [Compound 9, ((2R,3S,4R,5R)-5-(6-((3-fluorobenzyl)(methyl)amino)-9H-purin-9-yl)-3,4-dihydroxytetrahydrofuran-2-yl)methyl benzoate]: the 50% inhibitory concentration (IC50) in assay [1] was in the range of 5.1 to 15 µM.

As for `CN(Cc1cccc(F)c1)c1ncnc2c1ncn2[C@@H]1O[C@H](COCc2ccc(-c3ccccc3)cc2)[C@@H](O)[C@H]1O` [Compound 13, (2R,3S,4R,5R)-2-(([1,1′-biphenyl]-4-ylmethoxy)methyl)-5-(6-((3-fluorobenzyl)(methyl)amino)-9H-purin-9-yl)tetrahydrofuran-3,4-diol], the IC50 in assay [2] was 1.1 to 5 µM; in assay [1], under 1 µM.

Take `CN(Cc1cccc(F)c1)c1ncnc2c1ncn2[C@@H]1O[C@H](COCc2cc(C(F)(F)F)cc(C(F)(F)F)c2)[C@@H](O)[C@H]1O` [Compound 14, (2R,3S,4R,5R)-2-(((3,5-bis(trifluoromethyl)benzyl)oxy)methyl)-5-(6-((3-fluorobenzyl)(methyl)amino)-9H-purin-9-yl)tetrahydrofuran-3,4-diol]: the values for the 50% inhibitory concentration (IC50) in assay [2] and in assay [1] were 5.1 to 15 µM and under 1 µM, respectively. Regarding `CN(Cc1cccc(F)c1)c1ncnc2c1ncn2[C@@H]1O[C@H](COCc2ccc(S(F)(F)(F)(F)F)cc2)[C@@H](O)[C@H]1O` [Compound 15, (2R,3R,4S,5R)-2-(6-((3-fluorobenzyl)(methyl)amino)-9H-purin-9-yl)-5-(((4-(pentafluorothio)benzyl)oxy)methyl)tetrahydrofuran-3,4-diol], the concentration for half-maximal inhibition (IC50) in assay [2] and in assay [1] was 1.1 to 5 µM each time. `CN(Cc1cccc(F)c1)c1ncnc2c1ncn2[C@@H]1O[C@H](COCc2ccc3ccccc3c2)[C@H]2OC(C)(C)O[C@H]21` [Compound 16, 9-((3aR,4R,6R,6aR)-2,2-dimethyl-6-((naphthalen-2-ylmethoxy)methyl)tetrahydrofuro[3,4-d][1,3]dioxol-4-yl)-N-(3-fluorobenzyl)-N-methyl-9H-purin-6-amine]: the half-inhibitory concentration (IC50) fell in the range of 5.1 to 15 µM in assay [2] and 1.1 to 5 µM in assay [1].

For `CN(Cc1cccc(F)c1)c1ncnc2c1ncn2[C@@H]1O[C@H](COCc2ccc3ccccc3c2Br)[C@H]2OC(C)(C)O[C@H]21` [Compound 17, 9-((3aR,4R,6R,6aR)-6-(((1-bromonaphthalen-2-yl)methoxy)methyl)-2,2-dimethyltetrahydrofuro[3,4-d][1,3]dioxol-4-yl)-N-(3-fluorobenzyl)-N-methyl-9H-purin-6-amine], the IC50 in assay [2] and in assay [1] was 1.1 to 5 µM throughout.

As to `CN(Cc1cccc(F)c1)c1ncnc2c1ncn2[C@@H]1O[C@H](COCc2ccc3ccccc3c2)[C@@H](O)[C@H]1O` [Compound 18, (2R,3R,4S,5R)-2-(6-((3-fluorobenzyl)(methyl)amino)-9H-purin-9-yl)-5-((naphthalen-2-ylmethoxy)methyl)tetrahydrofuran-3,4-diol], the IC50 in assay [2] was 15.1 to 30 µM; in assay [1], 1.1 to 5 µM. With `CN(Cc1cccc(F)c1)c1ncnc2c1ncn2[C@@H]1O[C@H](COCc2ccc3ccccc3c2Br)[C@@H](O)[C@H]1O` [Compound 19, (2R,3S,4R,5R)-2-(((1-bromonaphthalen-2-yl)methoxy)methyl)-5-(6-((3-fluorobenzyl)(methyl)amino)-9H-purin-9-yl)tetrahydrofuran-3,4-diol], the IC50 in assay [2] and in assay [1] was 1.1 to 5 µM each time. Take `CN(Cc1cccc(F)c1)c1ncnc2c1ncn2[C@@H]1O[C@H](CO[Si](C)(C)C(C)(C)C)[C@@H](O)[C@H]1O` [Compound 20, (2R,3S,4R,5R)-2-(((tert-butyldimethylsilyl)oxy)methyl)-5-(6-((3-fluorobenzyl)(methyl)amino)-9H-purin-9-yl)tetrahydrofuran-3,4-diol]: the half-maximal inhibitory concentration (IC50) in assay [2] and in assay [1] was 1.1 to 5 µM each time. Turning to `CN(Cc1cccc(F)c1)c1ncnc2c1ncn2[C@@H]1O[C@H](CO[Si](c2ccccc2)(c2ccccc2)c2ccccc2)[C@@H](O)[C@H]1O` [Compound 21, (2R,3R,4S,5R)-2-(6-((3-fluorobenzyl)(methyl)amino)-9H-purin-9-yl)-5-(((triphenylsilyl)oxy)methyl)tetrahydrofuran-3,4-diol], the IC50 is 1.1 to 5 µM in assay [2] and under 1 µM in assay [1]. As to `O[C@@H]1[C@H](O)[C@@H](COC(c2ccccc2)(c2ccccc2)c2ccccc2)O[C@H]1n1cnc2c(Cl)ncnc21` [Compound 22, (2R,3R,4S,5R)-2-(6-chloro-9H-purin-9-yl)-5-((trityloxy)methyl)tetrahydrofuran-3,4-diol], the IC50 in assay [2] was 5.1 to 15 µM; in assay [1] it was under 1 µM. On to `COc1ccc(C(OC[C@H]2O[C@@H](n3cnc4c(Cl)ncnc43)[C@H](O)[C@@H]2O)(c2ccccc2)c2ccc(OC)cc2)cc1` [Compound 23, (2R,3S,4R,5R)-2-((bis(4-methoxyphenyl) (phenyl)methoxy)methyl)-5-(6-chloro-9H-purin-9-yl)tetrahydrofuran-3,4-diol], for which the half-inhibitory concentration (IC50) in assay [2] is at least 30 µM; in assay [1], 1.1 to 5 µM.

Source of the values: patent US20220160747A1, “PHARMACEUTICAL COMPOSITION COMPRISING NOVEL AZOLOPYRIMIDINE HETEROCYCLIC COMPOUND AS ACTIVE INGREDIENT” (KOREA RESEARCH INSTITUTE OF CHEMICAL TECHNOLOGY, priority 2019, published 2022).
